# In patent US20090082341A1 (SYNOSIA THERAPEUTICS, priority 2007, published 2009):
# Entries after “also recorded” stand apart in the source; their conditions may differ.
# How the values were obtained:
# hA1 = molecular target: T1, hA1 (Homo sapiens, UniProt P30542); experiment: Radioligand binding assay, human A1 receptor; settings: recombinant hA1
# T1 construct: made in house; host or cells: CHO cells, Semliki Forest virus expression system
# T1 sequence (P30542 1-326): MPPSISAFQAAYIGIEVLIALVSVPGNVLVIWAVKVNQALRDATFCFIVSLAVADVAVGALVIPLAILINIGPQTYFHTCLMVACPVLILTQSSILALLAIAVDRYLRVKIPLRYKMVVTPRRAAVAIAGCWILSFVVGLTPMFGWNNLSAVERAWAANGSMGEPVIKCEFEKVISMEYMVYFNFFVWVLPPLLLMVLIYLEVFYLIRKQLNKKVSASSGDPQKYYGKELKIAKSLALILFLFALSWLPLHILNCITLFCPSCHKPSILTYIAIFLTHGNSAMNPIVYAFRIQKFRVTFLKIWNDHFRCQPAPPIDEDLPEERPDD
# Method: Recombinant adenosine A1 (human, hA1; rat rA1), A2A (human hA2A; rat rA2A), A2B (human hA2B), and A3 (human hA3, dog dA3) were expressed in chinese hamster ovary (CHO) cells using the semliki forest virus expression system. […] The pellet was re-suspended in homogenizing buffer, and subsequently re-centrifuged (same conditions). The pellet was re-suspended in buffer (10 mM Tris-Cl, EDTA 2 mM pH 7.4 and adenosine deaminase 0.5 U/ml), incubated at 37° C. for 15 min, then re-centrifuged. The resulting pellet was re-suspended in Tris 10 mM, EDTA 2 mM and 10% Sucrose. The concentration of protein was determined, and the membranes were aliquoted and stored at −80° C. until further use.
# Non-specific binding was defined using xanthine amine congener or NECA. […] For both SPA and filtration plates, bound ligand was determined using a Packard Topcount scintillation counter.
# The CPM value for each duplicate of a concentration of competing compound was averaged (y1) then the % specific binding calculated, (((y1—non-specific)/(total binding non-specific))×100). […]
# male Sprague-Dawley rats = experiment: Differential-reinforcement-of-low-rate-30-seconds (DRL-30) test; assay type: in vivo, rat; settings: 3, 10 and 30 mg/kg po, 2 h before test
# Text: The differential-reinforcement-of low-rate (DRL) test is used not only to assess the potential antidepressant properties of drugs but also their anxiolytic potential. Animals are trained to respond to a certain stimulus by pressing a lever. Typical antidepressants, such as TCAs, increase the time between responses, thereby decreasing the response rate. They also increase the number of reinforced responses i.e. repeated pressing of the lever at least 30 seconds after the initial pressing of the lever. Opposite effects are observed with atypical antidepressants such as nomifensine and with benzodiazepine-like anxiolytics.
# The method follows that described by Richards J B, Seiden L S. A quantitative interresponse-time analysis of DRL performance differentiates similar effects of the antidepressant desipramine and the novel anxiolytic gepirone. J Exp Anal Behav. 1991; 56:173-192. Stephens D N, Voet B. Differential effects of anxiolytic and non-anxiolytic benzodiazepine receptor ligands on performance of a differential reinforcement of low rate (DRL) schedule. Behav Pharmacol. 1994; 5:4-14. Typical antidepressants increase the inter-response times, therefore decreasing the rate of responding. They also increase the number of reinforcements. Opposite effects are observed with benzodiazepine-like anxiolytics or with atypical antidepressants.
# Male adult Sprague-Dawley rats (Charles River, France) weighing approximately 350 g were used. The animals were housed one per cage in Macrolon Type 3 cages (810 cm^2) with sawdust bedding and wood shavings. Animals had free access to tap water and restricted access (15 g per day) to standard laboratory chow (Ratte Alleinfutter, extrudat No 3436; Provimikliba Kaiseraugst, Switzerland). The animal quarters were maintained on a 12:12 hr light-dark cycle with light onset at 6 a.m. Room temperature (22±2° C.) and humidity (55-65%) were kept constant. The experimental procedures used received prior approval from the City of Basel Cantonal Animal Protection Committee based on adherence to federal and local regulations on animal maintenance and testing. […]
structure (smiles),measurement,setting,value
COc1ccc(N2CCOCC2)c2sc(NC(=O)N3CCC(C)(O)CC3)nc12 [4-hydroxy-4-methyl-piperidine-1-carboxylic acid (4-methoxy-7-morpholin-4-yl-benzothiazol-2-yl)-amide],Ki,hA1,1330 ± 106 nM
same,mean inter-response time (time between responses),male Sprague-Dawley rats,decreased
same,number of reinforcements (reinforced responses),male Sprague-Dawley rats,tended to decrease
same,total number of responses,male Sprague-Dawley rats,dose-dependent increase; also recorded: significantly and dose-dependently increased
